Source: patent publication US20020081596A1, “Compositions and methods for the identification, assessment, prevention, and therapy of human cancers” (priority 2000, published 2002)

Tests used:
[1] = test system: tumor; conditions: animal models; cited from earlier work
[2] = test system: TAXOL resistant cancer cell lines; experiment: Growth inhibition (GI50) by TAXOL, mean of nine resistant cell lines; type: cell-based, human; conditions: mean of the nine TAXOL resistant cell lines of Table B
Protocol: (§1) One group of nine cell lines was determined to be sensitive to TAXOL (Table C), the other group of nine cell lines was determined to be resistant to TAXOL (Table B). Sensitivity to TAXOL was based of known GI50 values for these cells, which for this study was defined as the concentration of TAXOL required to inhibit growth of the cell line by 50%. More precisely, the quantity used in the calculation is the potency measure −log{GI50}. Pooled RNA from TAXOL sensitive cancer cell lines was used as tester against driver RNA pooled from TAXOL resistant cancer cell lines. Pooled RNA from TAXOL resistant cancer cell lines was used as tester against driver RNA pooled from TAXOL sensitive cancer cell lines.

[3] = test system: TAXOL sensitive cancer cell lines; experiment: Growth inhibition (GI50) by TAXOL, mean of nine sensitive cell lines; type: cell-based, human; conditions: mean of the nine TAXOL sensitive cell lines of Table C
Protocol: as §1

[4] = test system: EKVX; conditions: non-small cell lung carcinoma, TAXOL resistant cell line; cited from earlier work
[5] = test system: HOP-92; conditions: HOP-92, non-small cell lung carcinoma, TAXOL resistant cell line; cited from earlier work
[6] = test system: HCT-15; conditions: HCT-15, colon, TAXOL resistant cell line; cited from earlier work
[7] = test system: MALME-3M; conditions: melanoma, TAXOL resistant cell line; cited from earlier work
[8] = test system: SK-MEL-28; conditions: SK-MEL-28, melanoma, TAXOL resistant cell line; cited from earlier work
[9] = test system: OVCAR-4; conditions: OVCAR-4, ovarian, TAXOL resistant cell line; cited from earlier work
[10] = test system: ACHN; conditions: renal, TAXOL resistant cell line; cited from earlier work
[11] = test system: MCF-7/AdrRes; conditions: breast, TAXOL resistant cell line; cited from earlier work
[12] = test system: T-47D; conditions: breast, TAXOL resistant cell line; cited from earlier work
[13] = test system: NCl-H460; conditions: NCl-H460, non-small cell lung carcinoma, TAXOL sensitive cell line; cited from earlier work
[14] = test system: NCl-H522; conditions: NCl-H522, non-small cell lung carcinoma, TAXOL sensitive cell line; cited from earlier work
[15] = test system: HT-29; conditions: HT-29, colon, TAXOL sensitive cell line; cited from earlier work
[16] = test system: SK-MEL-2; conditions: SK-MEL-2, melanoma, TAXOL sensitive cell line; cited from earlier work
[17] = test system: SK-MEL-5; conditions: SK-MEL-5, melanoma, TAXOL sensitive cell line; cited from earlier work
[18] = test system: OVCAR-3; conditions: OVCAR-3, ovarian, TAXOL sensitive cell line; cited from earlier work
[19] = test system: SN12C; conditions: renal, TAXOL sensitive cell line; cited from earlier work
[20] = test system: MCF-7; conditions: MCF-7, breast, TAXOL sensitive cell line; cited from earlier work
[21] = test system: MDA-MB-435; conditions: MDA-MB-435, breast, TAXOL sensitive cell line; cited from earlier work

## CC(=O)O[C@@]12CO[C@@H]1C[C@H](O)[C@@]1(C)C(=O)[C@H](O)C3=C(C)[C@@H](OC(=O)[C@H](O)[C@@H](NC(=O)OC(C)(C)C)c4ccccc4)C[C@@](O)([C@@H](OC(=O)c4ccccc4)[C@H]21)C3(C)C [Taxotere, docetaxel]
[1]
  anti-tumor activity: good anti-tumor activity

## CC(=O)O[C@H]1C(=O)[C@@]2(C)[C@H]([C@H](OC(=O)c3ccccc3)[C@]3(O)C[C@H](OC(=O)[C@H](O)[C@@H](NC(=O)c4ccccc4)c4ccccc4)C(C)=C1C3(C)C)[C@]1(OC(C)=O)CO[C@@H]1C[C@@H]2O [TAXOL]
[2]
  Log Gl 50 for TAXOL (Mean): −6.5
[3]
  Log GI 50 for TAXOL (Mean): −8.5
[4]
  Log Gl 50 for TAXOL: −6.6
[5]
  Log Gl 50 for TAXOL: −7.2
[6]
  Log Gl 50 for TAXOL: −6.7
[7]
  Log Gl 50 for TAXOL: −6.8
[8]
  Log Gl 50 for TAXOL: −7.1
[9]
  Log Gl 50 for TAXOL: −6.3
[10]
  Log Gl 50 for TAXOL: −5.8
[11]
  Log Gl 50 for TAXOL: −5.5
[12]
  Log Gl 50 for TAXOL: −6.9
[13]
  Log GI 50 for TAXOL: −8.5
[14]
  Log GI 50 for TAXOL: −8.5
[15]
  Log GI 50 for TAXOL: −8.6
[16]
  Log GI 50 for TAXOL: −8.3
[17]
  Log GI 50 for TAXOL: −8.4
[18]
  Log GI 50 for TAXOL: −8.5
[19]
  Log GI 50 for TAXOL: −8.5
[20]
  Log GI 50 for TAXOL: −8.5
[21]
  Log GI 50 for TAXOL: −8.6
